Earlier results, collected in patent publication US20110105624A1, “ENDIPALENE FORMULATIONS IN THE TREATMENT OF PSORIASIS” (priority 2008, published 2011).

Test system: volunteers with psoriasis

COc1c(OC)c(OC(C)=O)c2cc(Cl)ccc2c1OC(C)=O [Lonapalene, 6-chloro-2,3-dimethoxynaphtalendiacetate]
clinical improvement in lesions (2% ointment, topical, compared with vehicle-treated sites): statistically significant clinical improvement | side effects related to topical application (topical application): serious side effects
